Data as given in US5302705A, “6-O-methylerythromycin A oxime derivatives” (Taisho Pharmaceutical Co., Ltd., priority 1989, dated 1994).
≈ marks a conversion by molar mass, not a printed value. Read-outs that look alike come from different tables or passages of the source.

Columns and labels:
S. aureus B1 = experiment: In vitro antibacterial activity (MIC), agar dilution technique; type: cell-based; conditions: Staphylococcus aureus
Experimental: (§1) The in vitro antibacterial activity of the compounds of the present invention against various test bacteria was measured by an agar dilution technique using sensitivity test agar (Eiken) as a test medium according to the MIC method specified by the Japan Chemotherapeutic Society.
(§2) The results are represented by the MIC value (minimum inhibitory concentration to microorganisms, mcg/ml), and shown in Table 1.

S. aureus J-109 = experiment: as above; type: cell-based; conditions: Staphylococcus aureus
Experimental: as §1, §2

[1] = in vivo; cited from earlier work
[2] = S. aureus B1, agar dilution, sensitivity test agar (Eiken), read-out: MIC value
[3] = J109, S. aureus J-109, agar dilution, sensitivity test agar (Eiken), read-out: MIC value

Row | Structure (SMILES) | MIC (S. aureus B1; [2]) | MIC (S. aureus J-109; [3]) | oral absorption [1] | MIC (S. aureus B1; B1, read-out: MIC value) | MIC (S. aureus J-109; J109, read-out: MIC value)
1 | CC[C@H]1OC(=O)[C@H](C)[C@@H](O[C@H]2C[C@@](C)(OC)[C@@H](O)[C@H](C)O2)[C@H](C)[C@@H](O[C@@H]2O[C@H](C)C[C@H](N(C)C)[C@H]2O)[C@](C)(OC)C[C@@H](C)C(=NOCc2c3ccccc3cc3ccccc23)[C@H](C)[C@@H](O)[C@]1(C)O [A] | 6.25 µg/mL (≈ 6.56 µM) | 6.25 µg/mL (≈ 6.56 µM) | – | – | –
2 | CC[C@H]1OC(=O)[C@H](C)[C@@H](O[C@H]2C[C@@](C)(OC)[C@@H](O)[C@H](C)O2)[C@H](C)[C@@H](O[C@@H]2O[C@H](C)C[C@H](N(C)C)[C@H]2O)[C@](C)(OC)C[C@@H](C)C(=NOCc2ccc(C(C)(C)C)cc2)[C@H](C)[C@@H](O)[C@]1(C)O [B] | 6.25 µg/mL (≈ 6.87 µM) | 6.25 µg/mL (≈ 6.87 µM) | – | – | –
3 | CC[C@H]1OC(=O)[C@H](C)[C@@H](O[C@H]2C[C@@](C)(OC)[C@@H](O)[C@H](C)O2)[C@H](C)[C@@H](O[C@@H]2O[C@H](C)C[C@H](N(C)C)[C@H]2O)[C@](C)(OC)C[C@@H](C)C(=NOCc2c(C)cc(C)cc2C)[C@H](C)[C@@H](O)[C@]1(C)O [Compound No. 1, 6-0-methylerythromycin A 9-[0-(2,4,6-trimethylbenzyl)oxime]] | 6.25 µg/mL (≈ 6.98 µM) | 6.25 µg/mL (≈ 6.98 µM) | – | – | –
4 | CC[C@H]1OC(=O)[C@H](C)[C@@H](O[C@H]2C[C@@](C)(OC)[C@@H](O)[C@H](C)O2)[C@H](C)[C@@H](O[C@@H]2O[C@H](C)C[C@H](N(C)C)[C@H]2O)[C@](C)(OC)C[C@@H](C)C(=NOCc2c(F)cccc2F)[C@H](C)[C@@H](O)[C@]1(C)O [Compound No. 8] | 12.5 µg/mL (≈ 14.1 µM) | 12.5 µg/mL (≈ 14.1 µM) | – | – | –
5 | CC[C@H]1OC(=O)[C@H](C)[C@@H](O[C@H]2C[C@@](C)(OC)[C@@H](O)[C@H](C)O2)[C@H](C)[C@@H](O[C@@H]2O[C@H](C)C[C@H](N(C)C)[C@H]2O)[C@](C)(OC)C[C@@H](C)C(=NOCC2CC3CCC2C3)[C@H](C)[C@@H](O)[C@]1(C)O (stereo partly shown) [Compound No. 45] | 12.5 µg/mL (≈ 14.3 µM) | 12.5 µg/mL (≈ 14.3 µM) | – | – | –
6 | CC[C@H]1OC(=O)[C@H](C)[C@@H](O[C@H]2C[C@@](C)(OC)[C@@H](O)[C@H](C)O2)[C@H](C)[C@@H](O[C@@H]2O[C@H](C)C[C@H](N(C)C)[C@H]2O)[C@](C)(OC)C[C@@H](C)C(=NOCc2ccc(C(C)C)cc2)[C@H](C)[C@@H](O)[C@]1(C)O [Compound No. 55] | 12.5 µg/mL (≈ 14 µM) | 12.5 µg/mL (≈ 14 µM) | – | – | –
7 | CC[C@H]1OC(=O)[C@H](C)[C@@H](O[C@H]2C[C@@](C)(OC)[C@@H](O)[C@H](C)O2)[C@H](C)[C@@H](O[C@@H]2O[C@H](C)C[C@H](N(C)C)[C@H]2O)[C@](C)(OC)C[C@@H](C)C(=NOCCCCc2ccccc2)[C@H](C)[C@@H](O)[C@]1(C)O [Compound No. 56] | 25 µg/mL (≈ 27.9 µM) | 25 µg/mL (≈ 27.9 µM) | – | – | –
8 | CC[C@H]1OC(=O)[C@H](C)[C@@H](O[C@H]2C[C@@](C)(OC)[C@@H](O)[C@H](C)O2)[C@H](C)[C@@H](O[C@@H]2O[C@H](C)C[C@H](N(C)C)[C@H]2O)[C@](C)(OC)C[C@@H](C)C(=NOC(C)c2ccccc2)[C@H](C)[C@@H](O)[C@]1(C)O (stereo partly shown) [D] | 12.5 µg/mL (≈ 14.4 µM) | 12.5 µg/mL (≈ 14.4 µM) | – | – | –
9 | CC[C@H]1OC(=O)[C@H](C)[C@@H](O[C@H]2C[C@@](C)(OC)[C@@H](O)[C@H](C)O2)[C@H](C)[C@@H](O[C@@H]2O[C@H](C)C[C@H](N(C)C)[C@H]2O)[C@](C)(O)C[C@@H](C)C(=O)[C@H](C)[C@@H](O)[C@]1(C)O [Erythromycin A] | – | – | low and inconsistent | – | –
10 | CC[C@H]1OC(=O)[C@H](C)[C@@H](O[C@H]2C[C@@](C)(OC)[C@@H](O)[C@H](C)O2)[C@H](C)[C@@H](O[C@@H]2O[C@H](C)C[C@H](N(C)C)[C@H]2O)[C@](C)(O)C[C@@H](C)C(=O)[C@H](C)[C@@H](O)[C@]1(C)O [a] | – | – | – | > 100 µg/mL | > 100 µg/mL
11 | CC[C@H]1OC(=O)[C@H](C)[C@@H](O[C@H]2C[C@@](C)(OC)[C@@H](O)[C@H](C)O2)[C@H](C)[C@@H](O[C@@H]2O[C@H](C)C[C@H](N(C)C)[C@H]2O)[C@](C)(OC)C[C@@H](C)C(=O)[C@H](C)[C@@H](O)[C@]1(C)O [b] | > 100 µg/mL | > 100 µg/mL | – | – | –
12 | CC[C@H]1OC(=O)[C@H](C)[C@@H](O[C@H]2C[C@@](C)(OC)[C@@H](O)[C@H](C)O2)[C@H](C)[C@@H](O[C@@H]2O[C@H](C)C[C@H](N(C)C)[C@H]2O)[C@](C)(O)C[C@@H](C)/C(=N\OCOCCOC)[C@H](C)[C@@H](O)[C@]1(C)O [c] | > 100 µg/mL | > 100 µg/mL | – | – | –
13 | CC[C@H]1OC(=O)[C@H](C)[C@@H](O[C@H]2C[C@@](C)(OC)[C@@H](O)[C@H](C)O2)[C@H](C)[C@@H](O[C@@H]2O[C@H](C)C[C@H](N(C)C)[C@H]2O)[C@](C)(OC)C[C@@H](C)C(=NOC)[C@H](C)[C@@H](O)[C@]1(C)O [d] | > 100 µg/mL | > 100 µg/mL | – | – | –
